This is an account of results in PMC12257413, “Discovery of a Novel sp^3‑Rich M1 Positive Allosteric Modulators (PAMs) Chemotype via Scaffold Hopping” (ACS Medicinal Chemistry Letters, 2025).

Data set [1] in a line: Brain homogenate binding by equilibrium dialysis. The data set is classed as in vitro ADME. To be noted: fraction unbound in rat brain homogenate. As for the experimental part:
(§1) A similar approach was used to determine the degree of brain homogenate binding, which employed the same methodology and procedure with the following modifications: 1) a final compound concentration of 1 μM was used, 2) naïve rat brains were homogenized in DPBS (1:3 composition of brain: DPBS, w/w) using a Mini-Bead Beater™ machine in order to obtain brain homogenate, which was then treated in the same manner as the plasma samples in the previously described plasma protein binding assay. […]
(§2) same manner as the plasma samples in the previously described plasma protein binding assay. Fraction unbound for both plasma and brain samples was determined using Equation 4.
(§3) Equation 4 Determination of fraction unbound in plasma.
(§4) The diluted fraction unbound (fu2) in brain was calculated in the same manner by using brain homogenate rather than plasma. Undiluted fraction unbound for the brain was calculated using Equation 5 […]
(§5) Equation 5 Determination of fraction unbound in brain. […]
(§6) Human or rat hepatic microsomes (0.5 mg/mL) and 1 µM test compound were incubated in 100 mM potassium phosphate pH 7.4 buffer with 3 mM MgCl 2 at 37 °C with constant shaking. […] The in vitro half-life (1/2, min, Eq. 1), intrinsic clearance (CL int, mL/min/kg, Eq. 2), and subsequent predicted hepatic clearance (CLhep, mL/min/kg, Eq. 3) was determined employing the following equations: […]
In general terms: In equilibrium dialysis free small molecules cross a membrane that holds back macromolecules.

A short description of data set [2]: Intrinsic clearance in human hepatic microsomes, predicted hepatic clearance. The data set is classed as in vitro ADME. As to conditions: predicted hepatic clearance from human hepatic microsomes. As for the experimental part: as §1, §2, §3, §4, §5, §6
Data set [3] in a line: Intrinsic clearance in rat hepatic microsomes, predicted hepatic clearance. The data set is classed as in vitro ADME. To be noted: predicted hepatic clearance from rat hepatic microsomes. As for the experimental part: as §1, §2, §3, §4, §5, §6
A short description of data set [4]: Rat in vivo PK (PK/PBL cassette). As to conditions: for AUC / MRT / half-life / Vd: plasma; for clearance: plasma clearance, read-out: CLp; for Vd: read-out: Vss. The source says: 4 Detailed In Vitro and In Vivo Profiles for Selected M1 PAMs ^a | column: Property; 17k; 17g

Each structure is given as a SMILES string.

A word on the AUC: it is the area under the concentration-time curve, a measure of exposure. Read a high AUC as more exposure. A word on the MRT: it is the average time that molecules of a dose stay in the body. For orientation: half-life means the time in which the quantity being followed falls by half. A lower half-life goes with fast loss. In turn, `Cn1cc(-c2ccc(Cc3cc(C(=O)N[C@H]4CCOC[C@@H]4O)nn3C3CCCC3)cc2)cn1` [17g] returned a Rat fubrain in data set [1] of 0.08. In data set [2], the “Human CLHEP” value was 6.7 mL/min/kg. Besides, in data set [3], the “Rat CLHEP” value is 32.8 mL/min/kg. In data set [4], the area under the curve (AUC) came to 160 ng·h/mL, the mean residence time MRT was 76.8 min, the half-life is 72.6 min and the clearance was 20.8 mL/min/kg. For the same compound, in data set [4], the Vd came to 1.59 L/kg.
Compound `Cn1cc(-c2ccc(Cc3cc(C(=O)N[C@H]4CCCC[C@@H]4O)nn3C3CCCC3)cc2)cn1` [17k] displayed a Rat fubrain in data set [1] of 0.01. The “Human CLHEP” value in data set [2] is 14.3 mL/min/kg. Further, in data set [3], the “Rat CLHEP” value was 49.5 mL/min/kg. Moreover, in data set [4], the area under the curve (AUC) is 74.4 ng·h/mL, the MRT turned out to be 39 min, the half-life is 37.8 min and the clearance was 56 mL/min/kg. Moreover, the Vd in data set [4] was 2.2 L/kg.
